The target in this assay is T1, HCV polymerase (Hepatitis C virus genotype 1b, UniProt P26663).
T1 construct: a region encoding NS5B (J Virol 1991 March, 65(3), 1105-13, 544 amino acids after deletion of 47 amino acids on the C-terminal); 6xHis (C); made in house; host or cells: Escherichia coli
The assay can be described thus: biochemical. Details: species or system HCV BK strain. A digest of the protocol:
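His-tagged NS5B (BK strain, 47-aa C-terminal deletion, E. coli-expressed) at 0.5 μg/ml copied 5 μg/ml run-off RNA bearing the HCV 3′ UTR with 2 μM UTP plus [3H]UTP, 50 μM ATP/GTP, in pH 7.5 Tris with 5 mM MgCl2, 25 °C, 90 min. TCA-precipitated RNA was counted and IC50 calculated.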

Counter-ions that a name gives are not always drawn. A value given as a limit tells only on which side of the number the result lay.

T1 sequence (P26663 2420-2963): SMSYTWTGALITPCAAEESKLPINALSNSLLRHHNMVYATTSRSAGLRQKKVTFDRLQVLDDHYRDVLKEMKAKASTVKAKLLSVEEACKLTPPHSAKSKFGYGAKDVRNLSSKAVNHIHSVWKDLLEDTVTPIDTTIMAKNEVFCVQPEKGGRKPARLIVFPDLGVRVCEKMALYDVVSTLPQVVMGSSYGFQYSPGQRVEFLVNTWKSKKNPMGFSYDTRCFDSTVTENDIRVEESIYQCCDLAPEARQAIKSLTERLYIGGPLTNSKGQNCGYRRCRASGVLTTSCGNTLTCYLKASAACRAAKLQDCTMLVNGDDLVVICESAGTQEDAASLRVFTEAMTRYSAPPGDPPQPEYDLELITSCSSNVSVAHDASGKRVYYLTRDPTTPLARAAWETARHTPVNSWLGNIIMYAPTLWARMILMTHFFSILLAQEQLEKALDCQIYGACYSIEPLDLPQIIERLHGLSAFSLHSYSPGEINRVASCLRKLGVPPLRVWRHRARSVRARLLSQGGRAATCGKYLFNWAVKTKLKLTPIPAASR

The molecule `CCN(CC)CCN1CCn2c(c(C3CCCCC3)c3ccc(C(=O)O)cc32)-c2ccccc21` [Example 1-185, 13-cyclohexyl-5-(2-diethylaminoethyl)-6,7-dihydro-5H-benzo[5,6][1,4]diazepino[7,1-a]indole-10-carboxylic acid dihydrochloride] came in with an IC50 of less than 100 nM.
Next, `CC(C)N(CCN1CCn2c(c(C3CCCCC3)c3ccc(C(=O)O)cc32)-c2ccccc21)C(C)C` [Example 1-186, 13-cyclohexyl-5-(2-diisopropylaminoethyl)-6,7-dihydro-5H-benzo[5,6][1,4]diazepino[7,1-a]indole-10-carboxylic acid dihydrochloride]: less than 100 nM; `CC1CC(C)CN(C(=O)CN2CCn3c(c(C4CCCCC4)c4ccc(C(=O)O)cc43)-c3ccccc32)C1` (centres unmarked) [Example 1-187, 13-cyclohexyl-5-[2-(3,5-dimethylpiperidin-1-yl)-2-oxoethyl]-6,7-dihydro-5H-benzo[5,6][1,4]diazepino[7,1-a]indole-10-carboxylic acid monohydrochloride]: less than 100 nM.
Next, `CCC1CCCN(C(=O)CN2CCn3c(c(C4CCCCC4)c4ccc(C(=O)O)cc43)-c3ccccc32)C1` (centres unmarked) [Example 1-188, 13-cyclohexyl-5-[2-(3-ethylpiperidin-1-yl)-2-oxoethyl]-6,7-dihydro-5H-benzo[5,6][1,4]diazepino[7,1-a]indole-10-carboxylic acid monohydrochloride]: less than 100 nM; `CC1CC(C)CN(CCN2CCn3c(c(C4CCCCC4)c4ccc(C(=O)O)cc43)-c3ccccc32)C1` (centres unmarked) [Example 1-189, 13-cyclohexyl-5-[2-(3,5-dimethylpiperidin-1-yl)ethyl]-6,7-dihydro-5H-benzo[5,6][1,4]diazepino[7,1-a]indole-10-carboxylic acid dihydrochloride]: less than 100 nM.
As for `CCC1CCCN(CCN2CCn3c(c(C4CCCCC4)c4ccc(C(=O)O)cc43)-c3ccccc32)C1` (centres unmarked) [Example 1-190, 13-cyclohexyl-5-[2-(3-ethylpiperidin-1-yl)ethyl]-6,7-dihydro-5H-benzo[5,6][1,4]diazepino[7,1-a]indole-10-carboxylic acid dihydrochloride], the IC50 was less than 100 nM.
Next, `Cc1ccc2c(c1)-c1c(C3CCCCC3)c3ccc(C(=O)O)cc3n1CCN2CCN1CCCCC1` [Example 1-191, 13-cyclohexyl-2-methyl-5-[2-(piperidin-1-yl)ethyl]-6,7-dihydro-5H-benzo[5,6][1,4]diazepino[7,1-a]indole-10-carboxylic acid dihydrochloride]: 100 to 1000 nM.
Molecule `CCCC1CCN(CCN2CCn3c(c(C4CCCCC4)c4ccc(C(=O)O)cc43)-c3ccccc32)CC1` [Example 1-192, 13-cyclohexyl-5-[2-(4-propylpiperidin-1-yl)ethyl]-6,7-dihydro-5H-benzo[5,6][1,4]diazepino[7,1-a]indole-10-carboxylic acid dihydrochloride] displayed an IC50 of less than 100 nM.
As for `C[C@@H]1CCC[C@H](C)N1CCN1CCn2c(c(C3CCCCC3)c3ccc(C(=O)O)cc32)-c2ccccc21` [Example 1-193, 13-cyclohexyl-5-[2-((2S,6R)-2,6-dimethylpiperidin-1-yl)ethyl]-6,7-dihydro-5H-benzo[5,6][1,4]diazepino[7,1-a]indole-10-carboxylic acid dihydrochloride], the IC50 is less than 100 nM.
The value for `O=C(O)c1ccc2c(C3CCCCC3)c3n(c2c1)CCN(CCCN1CCCCCC1)c1ccccc1-3` [Example 1-194, 5-[3-(azepan-1-yl)propyl]-13-cyclohexyl-6,7-dihydro-5H-benzo[5,6][1,4]diazepino[7,1-a]indole-10-carboxylic acid dihydrochloride] was less than 100 nM; that for `O=C(CN1CCn2c(c(C3CCCCC3)c3ccc(C(=O)O)cc32)-c2ccccc21)NC12CC3CC(CC(C3)C1)C2` [Example 1-195, 5-(adamantan-1-ylcarbamoylmethyl)-13-cyclohexyl-6,7-dihydro-5H-benzo[5,6][1,4]diazepino[7,1-a]indole-10-carboxylic acid monohydrochloride] was less than 100 nM; that for `O=C(O)c1ccc2c(C3CCCCC3)c3n(c2c1)CCN(CCNC12CC4CC(CC(C4)C1)C2)c1ccccc1-3` [Example 1-196, 5-[2-(adamantan-1-ylamino)ethyl]-13-cyclohexyl-6,7-dihydro-5H-benzo[5,6][1,4]diazepino[7,1-a]indole-10-carboxylic acid dihydrochloride] was less than 100 nM.
With `COCC1CCN(CCN2CCn3c(c(C4CCCCC4)c4ccc(C(=O)O)cc43)-c3ccccc32)CC1` [Example 1-197, 13-cyclohexyl-5-[2-(4-methoxymethylpiperidin-1-yl)ethyl]-6,7-dihydro-5H-benzo[5,6][1,4]diazepino[7,1-a]indole-10-carboxylic acid dihydrochloride], the IC50 was less than 100 nM.
In the case of `CCCN(C)CCN1CCn2c(c(C3CCCCC3)c3ccc(C(=O)O)cc32)-c2ccccc21` [Example 1-198, 13-cyclohexyl-5-[2-(N-methyl-N-propylamino)ethyl]-6,7-dihydro-5H-benzo[5,6][1,4]diazepino[7,1-a]indole-10-carboxylic acid dihydrochloride], the IC50 was less than 100 nM.
In the case of `CC1(C)CCN(CCN2CCn3c(c(C4CCCCC4)c4ccc(C(=O)O)cc43)-c3ccccc32)CC1` [Example 1-199, 13-cyclohexyl-5-[2-(4,4-dimethylpiperidin-1-yl)ethyl]-6,7-dihydro-5H-benzo[5,6][1,4]diazepino[7,1-a]indole-10-carboxylic acid dihydrochloride], the IC50 was less than 100 nM.
The value for `COCC1CCCN(CCN2CCn3c(c(C4CCCCC4)c4ccc(C(=O)O)cc43)-c3ccccc32)C1` (centres unmarked) [Example 1-200, 13-cyclohexyl-5-[2-(3-methoxymethylpiperidin-1-yl)ethyl]-6,7-dihydro-5H-benzo[5,6][1,4]diazepino[7,1-a]indole-10-carboxylic acid dihydrochloride] was less than 100 nM; that for `CN1CCCC(CCN2CCn3c(c(C4CCCCC4)c4ccc(C(=O)O)cc43)-c3ccccc32)C1` (centres unmarked) [Example 1-201, 13-cyclohexyl-5-[2-(1-methylpiperidin-3-yl)ethyl]-6,7-dihydro-5H-benzo[5,6][1,4]diazepino[7,1-a]indole-10-carboxylic acid dihydrochloride] was less than 100 nM; that for `CC(C)N1CCCC(CCN2CCn3c(c(C4CCCCC4)c4ccc(C(=O)O)cc43)-c3ccccc32)C1` (centres unmarked) [Example 1-202, 13-cyclohexyl-5-[2-(1-isopropylpiperidin-3-yl)ethyl]-6,7-dihydro-5H-benzo[5,6][1,4]diazepino[7,1-a]indole-10-carboxylic acid dihydrochloride] was less than 100 nM.
The value for `O=C(O)c1ccc2c(C3CCCCC3)c3n(c2c1)CC(=O)N(CC(=O)N1CCCCC1)c1ccccc1-3` [Example 1-203, 13-cyclohexyl-6-oxo-5-[2-oxo-2-(piperidin-1-yl)ethyl]-6,7-dihydro-5H-benzo[5,6][1,4]diazepino[7,1-a]indole-10-carboxylic acid] was less than 100 nM; that for `CCN1CCN(C(=O)CN2C(=O)Cn3c(c(C4CCCCC4)c4ccc(C(=O)O)cc43)-c3ccccc32)CC1` [Example 1-204, 13-cyclohexyl-5-[2-(4-ethylpiperazin-1-yl)-2-oxoethyl]-6-oxo-6,7-dihydro-5H-benzo[5,6][1,4]diazepino[7,1-a]indole-10-carboxylic acid monohydrochloride] was less than 100 nM.

For orientation: IC50 means the concentration at which inhibition is half-maximal.
